These results are taken from US20260124191A1, “HISTONE DEACETYLASE INHIBITOR AND USES THEREOF” (NANJING HONGSHUN PHARMACEUTICAL TECHNOLOGY CO., LTD, priority 2023, published 2026).

Test [1] has as its system HDAC. The test can be described thus: HDAC inhibitory activity assay (FRET). Conditions: for IC50: HDAC, FRET, read-out: Half-maximal inhibitory concentration (IC50 ± SD); for Inhibition rate: test concentration 100 nM, relative to DMSO control. It counts as biochemical. The protocol: The HDAC inhibitory activity of the synthesized compounds was determined by fluorescence resonance energy transfer (FRET), and then compared with that of the positive control to screen out compounds with better activity. HDAC was obtained by purification or purchased directly.
The method was as follows.
An enzyme was added to reaction wells, a reaction buffer was added to control wells, a sample dissolved in DMSO was added to the reaction wells, and the wells were incubated using a contactless nanoflow sonic pipetting system (Ech-550; nanoflow). A fluorescent substrate was added to each reaction well and then rotated and shaken. The wells were incubated for 1-2 h at 30° C. under a sealed condition. A TMP26-containing chromogenic agent was added to terminate the reaction and produce fluorescence. The fluorescence intensity was detected using En Vision multi-label microplate detector (Perkin Elmer) (excitation light: 490 nm, emitted light: 520 nm). After the stabilization of color development, the endpoint value was read. The percentage (relative to the DMSO control group) inhibition rate was calculated using the software GraphPad Prism 4.

The test system of test [2] is HT29. The test can be described thus: In vitro anti-tumor activity, MTT method. It counts as cell-based. The settings on record: Homo sapiens, HT-29, 96-hour treatment, read-out: Antiproliferative Activity (IC50 ± SD, μM) HT29.
In test [3] the test system is human colon cancer cell line HCT116. Kind of test: In vitro anti-tumor activity, MTT method. It counts as cell-based. Conditions: HCT-116, 96-hour treatment, read-out: Antiproliferative Activity (IC50 ± SD, μM) HCT116. How it is done: (§1) The inhibitory effects of the compounds against human non-small cell lung cancer cell lines A549, NCI-H1650, human small cell lung cancer cell lines H446, human prostate cancer cells DU145, PC-3, LNCAP, human colon cancer cells lines HCT116, human breast cancer cells MDA-MB-231, and MCF7 tumor cell lines were determined using the MTT method.
(§2) The method was as follows. The cells in the exponential growth phase were collected to count living cells. The concentration of the cell suspension was adjusted using the corresponding medium of each group of cells. The cell suspension was added to the 96-well culture plate at 100 μL per cell, and the plate was placed in a 5% CO2 incubator at 37° C. and incubated for 24 h. Each test compound was dissolved in DMSO to prepare a stock solution with a corresponding concentration. Then, each stock solution was diluted 500-fold with the medium to prepare 4 replicate wells. 100 μL of the corresponding 500-fold solution was added to each well per cell line, with the final DMSO concentration of 0.1%. […] The half-maximal (relative to the DMSO control group) inhibition rate was calculated using the software GraphPad Prism 4.

Test [4] has as its system human small cell lung cancer cell line H446. Kind of test: In vitro anti-tumor activity, MTT method. The test is classed as cell-based. Conditions: NCI-H446, 96-hour treatment, read-out: Antiproliferative Activity (IC50 ± SD, μM) H446. The protocol:
as §1, §2

Test [5] concerns human non-small cell lung cancer cell line A549. The test can be described thus: In vitro anti-tumor activity, MTT method. The settings on record: Homo sapiens, A549, 96 h, 96-hour treatment. The test is classed as cell-based. The protocol: as §1, §2
Test [6] has as its system human non-small cell lung cancer cell line NCI-H1650. Kind of test: In vitro anti-tumor activity, MTT method. It counts as cell-based. The settings on record: 96-hour treatment, read-out: Antiproliferative Activity (IC50 ± SD, μM) H1650. How it is done: as §1, §2
Test [7] relates to human prostate cancer cells PC-3. The test can be described thus: In vitro anti-tumor activity, MTT method. It counts as cell-based. The settings on record: Homo sapiens, 96 h, PC-3, MTT, 96-hour treatment. How it is done: as §1, §2
Test [8] relates to human prostate cancer cells LNCAP. Kind of test: In vitro anti-tumor activity, MTT method. It counts as cell-based. Conditions: 96-hour treatment, read-out: Antiproliferative Activity (IC50 ± SD, μM) LNCAP. How it is done:
as §1, §2

The subject of test [9] is human breast cancer cells MCF7. Kind of test: In vitro anti-tumor activity, MTT method. The test is classed as cell-based. The settings on record: Homo sapiens, MCF7, 96 h, MCF-7, MTT, 96-hour treatment. The protocol:
as §1, §2

For test [10], the system named is human breast cancer cells MDA-MB-231. Kind of test: In vitro anti-tumor activity, MTT method. The test is classed as cell-based. Conditions: MDA-MB-231, MTT, 96-hour treatment, read-out: Antiproliferative Activity (IC50 ± SD, μM) MDA-MB-231. How it is done: as §1, §2
Test [11] has as its system human prostate cancer cells DU145. The test can be described thus: In vitro anti-tumor activity, MTT method. The test is classed as cell-based. Conditions: Homo sapiens, DU-145, 96 h, 96-hour treatment. How it is done: as §1, §2

`O=C(CCCCCCN1C(=O)C/C(=C\c2ccccc2Cl)C1=O)NO` [Example I-24, (E)-7-(3-(2-chlorobenzal)-2,5-diketopyrrolidinyl)-N-hydroxyheptamide]: the IC50 in [1] was 19.3 ± 0.11 nM; in [2], 1.22 ± 0.1 µM; in test [3] it was 0.86 ± 0.08 µM; in test [4] it was 0.77 ± 0.1 µM; in [5] it was 1330 ± 230 nM; in test [6] it was 6.6 ± 0.57 µM. Moreover, the IC50 amounted to 1440 ± 100 nM in test [7]; 1.51 ± 0.22 µM in [8]; 580 ± 30 nM in [9]; 0.99 ± 0.11 µM in test [10]; 480 ± 60 nM in [11].
In the case of `O=C(CCCCCCN1C(=O)C/C(=C\c2ccc3ccccc3c2)C1=O)NO` [Example I-22, (E)-7-(3-(2-methylenenaphthyl)-2,5-diketopyrrolidinyl)-N-hydroxyheptamide], the Inhibition rate in [1] is recorded as 89.4% ± 0.9%. The IC50 in test [2] was 1.69 ± 0.1 µM; in [3], 0.91 ± 0.11 µM; in test [4], 0.7 ± 0.1 µM; in [5], 1800 ± 140 nM; in [6], 4.42 ± 0.72 µM; in [7] it was 1290 ± 140 nM. In addition, the IC50 came to 1.48 ± 0.2 µM in [8], 980 ± 20 nM in [9], 0.98 ± 0.11 µM in test [10] and 340 ± 30 nM in test [11].
In the case of `O=C(CCCCCCN1C(=O)C/C(=C\c2cccc(Cl)c2)C1=O)NO` [Example I-25, (E)-7-(3-(3-chlorobenzal)-2,5-diketopyrrolidinyl)-N-hydroxyheptamide], in test [1], the Inhibition rate is 91.2% ± 0.7%. Further, the IC50 worked out at 1.3 ± 0.1 µM in [2]; 0.81 ± 0.06 µM in [3]; 0.78 ± 0.04 µM in test [4]; 1120 ± 200 nM in test [5]; 7.3 ± 0.56 µM in test [6]; 1700 ± 80 nM in test [7]. In addition, the IC50 in test [8] worked out at 1.95 ± 0.21 µM; in test [9] it was 1050 ± 240 nM; in test [10], 2.05 ± 0.2 µM; in test [11], 380 ± 40 nM.
Consider `COc1ccccc1/C=C1\CC(=O)N(CCCCCCC(=O)NO)C1=O` [Example I-31, (E)-7-(3-(2-methoxybenzal)-2,5-diketopyrrolidinyl)-N-hydroxyheptamide], for which the IC50 came out at 12.6 ± 0.15 nM in test [1]; 1.05 ± 0.1 µM in [2]; 0.47 ± 0.01 µM in test [3]; 0.65 ± 0.05 µM in [4]; 1390 ± 60 nM in test [5]; 3.56 ± 0.1 µM in [6]. Further, the IC50 in test [7] is 820 ± 90 nM; in test [8], 0.63 ± 0.12 µM; in [9], 350 ± 20 nM; in [10] it was 0.31 ± 0.05 µM; in [11] it was 160 ± 40 nM.
With `O=C(CCCCCCN1C(=O)C/C(=C\c2ccccc2)C1=O)NO` [Example I-4], the IC50 in [1] stood at 12.9 ± 0.1 nM; in test [2], 1.76 ± 0.25 µM; in [3], 0.75 ± 0.08 µM; in test [4] it was 0.57 ± 0.03 µM; in [5], 1320 ± 170 nM; in [6] it was 6.12 ± 0.88 µM. For the same compound, the IC50 in test [7] is 820 ± 70 nM; in test [8], 1.63 ± 0.24 µM; in [9], 1430 ± 60 nM; in [10], 0.67 ± 0.1 µM; in test [11] it was 500 ± 70 nM.
As to `O=C(NO)c1ccc(CN2C(=O)C/C(=C\c3ccccc3)C2=O)cc1` [Example I-41, (E)-4-((3-benzal-2,5-diketopyrrolidinyl)methyl)-N-hydroxybenzamide], in [1], the Inhibition rate is 77.1% ± 1.8%. Further, the IC50 in test [5] turned out to be 3090 ± 410 nM; in test [7], 7820 ± 900 nM; in test [9], 6970 ± 830 nM; in test [11], 2540 ± 410 nM.
